In PubChem BioAssay (NCI):
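These data come from cells grown in 96-well plates and exposed to compound for 48 hours at five concentrations. TGI marks complete inhibition of growth.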

Assays:
Assay in all cases: NCI tumour cell line growth inhibition, 48 h
[1] = tested on: SK-OV-3 ovarian
[2] = tested on: SNB-19 CNS
[3] = tested on: K-562 leukemia
[4] = tested on: UACC-257 melanoma
[5] = tested on: SNB-75 CNS
[6] = tested on: HL-60(TB) leukemia
[7] = tested on: MOLT-4 leukemia
[8] = tested on: DMS 114 small cell lung
[9] = tested on: SNB-78 CNS
[10] = tested on: CAKI-1 renal
[11] = tested on: UO-31 renal
[12] = tested on: MCF7 breast
[13] = tested on: NCI-H23 lung
[14] = tested on: OVCAR-8 ovarian
[15] = tested on: SF-295 CNS
[16] = tested on: U251 CNS
[17] = tested on: HCT-116 colon
[18] = tested on: SW-620 colon
[19] = tested on: LOX IMVI melanoma
[20] = tested on: EKVX NSCLC
[21] = tested on: NCI-H522 lung
[22] = tested on: NCI-H460 lung
[23] = tested on: DMS 273 small cell lung
[24] = tested on: HOP-18 NSCLC
[25] = tested on: XF 498 CNS
[26] = tested on: IGROV1 ovarian
[27] = tested on: P388/ADR leukemia
[28] = tested on: COLO 205 colon
[29] = tested on: HOP-62 NSCLC
[30] = tested on: P388 leukemia
[31] = tested on: SN12K1 renal
[32] = tested on: HCC-2998 colon
[33] = tested on: HCT-15 colon
[34] = tested on: CCRF-CEM leukemia
[35] = tested on: M19-MEL melanoma
[36] = tested on: NCI/ADR-RES ovarian
[37] = tested on: DLD-1 colon
[38] = tested on: SK-MEL-28 melanoma
[39] = tested on: SK-MEL-2 melanoma
[40] = tested on: SF-268 CNS
[41] = tested on: A498 renal
[42] = tested on: SK-MEL-5 melanoma
[43] = tested on: OVCAR-5 ovarian
[44] = tested on: UACC-62 melanoma
[45] = tested on: KM20L2 colon
[46] = tested on: RPMI-8226 leukemia
[47] = tested on: HT29 colon
[48] = tested on: SF-539 CNS
[49] = tested on: HOP-92 NSCLC
[50] = tested on: MALME-3M melanoma
[51] = tested on: OVCAR-4 ovarian
[52] = tested on: KM12 colon
[53] = tested on: NCI-H226 lung
[54] = tested on: OVCAR-3 ovarian
[55] = tested on: A549 NSCLC
[56] = tested on: SN12C renal
[57] = tested on: RXF 393 renal

SMILES: O=S1(=O)C(=C(c2ccccc2)c2ccccc2)S(=O)(=O)c2ccccc21
- TGI [1]: > 100 µM
- TGI [2]: > 100 µM
- TGI [3]: > 100 µM
- TGI [4]: > 100 µM
- TGI [5]: 44.4 µM
- TGI [6]: > 100 µM
- TGI [7]: > 100 µM
- TGI [8]: > 100 µM
- TGI [9]: 99.7 µM
- TGI [10]: > 100 µM
- TGI [11]: > 100 µM
- TGI [12]: > 100 µM
- TGI [13]: > 100 µM
- TGI [14]: > 100 µM
- TGI [15]: > 66.4 µM
- TGI [16]: > 100 µM
- TGI [17]: > 100 µM
- TGI [18]: > 100 µM
- TGI [19]: > 100 µM
- TGI [20]: > 100 µM
- TGI [21]: > 100 µM
- TGI [22]: > 100 µM
- TGI [23]: > 100 µM
- TGI [24]: > 100 µM
- TGI [25]: 62.4 µM
- TGI [26]: > 100 µM
- TGI [27]: > 100 µM
- TGI [28]: > 100 µM
- TGI [29]: 46.8 µM
- TGI [30]: > 31.6 µM
- TGI [31]: 65.1 µM
- TGI [32]: > 100 µM
- TGI [33]: > 100 µM
- TGI [34]: > 100 µM
- TGI [35]: > 100 µM
- TGI [36]: > 100 µM
- TGI [37]: > 100 µM
- TGI [38]: > 100 µM
- TGI [39]: > 100 µM
- TGI [40]: > 100 µM
- TGI [41]: > 100 µM
- TGI [42]: > 100 µM
- TGI [43]: > 100 µM
- TGI [44]: > 100 µM
- TGI [45]: > 100 µM
- TGI [46]: > 100 µM
- TGI [47]: > 100 µM
- TGI [48]: 73.3 µM
- TGI [49]: 50.8 µM
- TGI [50]: > 100 µM
- TGI [51]: > 100 µM
- TGI [52]: > 100 µM
- TGI [53]: > 100 µM
- TGI [54]: > 100 µM
- TGI [55]: > 100 µM
- TGI [56]: > 100 µM
- TGI [57]: > 100 µM
